Data published in publication PMC5207065, “The Ribosome Restrains Molten Globule Formation in Stalled Nascent Flavodoxin” (The Journal of Biological Chemistry, 2016).

Assays:
Test in all cases: FMN fluorescence quenching on binding to apoprotein, time trace
[1] = biological target: T1, F44YRNC (ribosome-nascent chain complex of F44Y flavodoxin) (Azotobacter vinelandii, UniProt P00324, F45Y/C70A); settings: buffer I (HEPES-KOH, magnesium acetate), pH 7.4, 25 °C; 50 nM RNC, 25 nM FMN; stalled on ribosome
T1 construct: gene nifF; fusion: triple StrepII tag, Smt3, flavodoxin, TEV site, linker, SecM; stalled on E. coli ribosome, made in vitro with PURExpress, Strep-Tactin purified; tags kept

[2] = biological target: T2, flavodoxin (C69A apoflavodoxin; F44Y apoflavodoxin) (Azotobacter vinelandii, UniProt P00324, C70A); settings: 10 or 100 mM potassium PPi, pH 6.0, 25 °C; 140 nM protein, 25 nM FMN
T2 construct: gene nifF; full-length isolated apoflavodoxin, 179 residues, expressed in E. coli TG2; FMN removed

[3] = biological target: T3, apo-F44YP (released F44Y flavodoxin construct) (Azotobacter vinelandii, UniProt P00324, F45Y/C70A); settings: 100 mM potassium PPi, 25 °C; refolded apo-F44YP 147 nM, 25 nM FMN
T3 construct: gene nifF; tags kept
T3 sequence (P00324 2-180 F45Y/C70A): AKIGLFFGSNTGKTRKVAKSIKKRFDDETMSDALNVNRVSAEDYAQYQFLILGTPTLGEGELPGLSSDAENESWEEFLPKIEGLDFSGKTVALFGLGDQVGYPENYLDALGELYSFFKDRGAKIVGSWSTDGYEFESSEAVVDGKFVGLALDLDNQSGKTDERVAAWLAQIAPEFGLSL

T2 sequence (P00324 2-180 C70A): as the sequence (P00324 2-180 F45Y/C70A) above, with Y44F counted along it
T1 sequence (P00324 2-180 F45Y/C70A, one chain of several): as the sequence (P00324 2-180 F45Y/C70A) above

Question: Which “FMN fluorescence quenching on binding to apoprotein, time trace” value (“FMN fluorescence quenching on binding” for short) [1] does the source give for `Cc1cc2nc3c(=O)[nH]c(=O)nc-3n(C[C@H](O)[C@H](O)[C@H](O)COP(=O)(O)O)c2cc1C` [FMN] here?
Answer: F44YRNC binds FMN rapidly at both salt concentrations

Question: And the “FMN fluorescence quenching on binding” value [2]?
Answer: time-dependent decrease of FMN fluorescence upon cofactor binding to C69A apoflavodoxin

Question: What about the “FMN fluorescence quenching on binding” value [3] of the same compound?
Answer: the FMN binding trace of this refolded apo-F44YP was measured in various buffers
